In patent publication US5952335A, “Fused polycyclic heterocycle derivatives” (Eisai Co., Ltd., priority 1995, dated 1999):
Counter-ions that a name gives are not always drawn.

Test system: P388 cells
Test: in vitro Antitumor Test on P388 Cells (Mouse Leukemic Cells), MTT, 3 days
Assay type: cell-based
Conditions: 72 h, 3 days incubation
Method: P388 cells suspended in RPMI1640 medium (manufactured by Sanko Junyaku) containing 10% of fetal calf serum, (100 U/ml) of penicillin, 100 μg/ml of streptomycin, 5×10^-5 M of mercaptoethanol and 1 mM of sodium pyruvate were pipetted into a 96-well U-bottomed microplate at a ratio of 1.25×10^3 cells (0.1 ml) per well and incubated in a incubator containing 5% of carbon dioxide at 37° C. for a day. A compound of the present invention was dissolved in dimethyl sulfoxide to give a concentration of 10^-2 M and then diluted with the 10% fetal calf serum-containing RPMI1640 culture medium to give a concentration of 10^-4 or 10^-5 M. By taking this concentration as the maximal level, threefold serial dilution was effected with the use of the 10% fetal calf serum-containing RPMI1640 culture medium. Then these dilutions were added to the P388 incubation plate as described above at a ratio of 0.1 ml per well followed by incubation in an incubator containing 5% of carbon dioxide at 37° C. for 3 days. After the completion of the incubation, 0.05 ml/well of a 3.3 mg/ml solution of MTT [3-(4,5-dimethylthiazol-2-yl)-2,5-diphenyltetrazolium bromide] was added thereto and the incubation was continued for additional 2 hours. The microplate was centrifuged and the supernatant was aspirated off from each well. Then the formazan thus formed was dissolved in 0.1 ml of dimethyl sulfoxide and the absorbance thereof at 540 nm measured with a microplate reader was taken as an indication of the viable cell count. In accordance with the following formula, the inhibitory ratio was calculated and the 50% inhibitory concentration (IC50) of the test compound was determined: [formula] wherein T means the absorbance of a well containing the test compound; and C means the absorbance of a well containing no test compound.

Structure (SMILES) | IC50
COc1ccc2c(ccc3c2c2cccc4c(=O)n(CCN(C)C)c(=O)n3c42)c1 [Example 22, 5-[2-(Dimethylamino)ethyl]-11-methoxy-4H-benzo[c]pyrimido [5,6,1-jk]carbazole-4,6(5H)-dione hydrochloride] | 290 nM
CN(C)CCn1c(=O)c2c3ccccc3nc3c4ccccc4n(c1=O)c32 [Example 24, 2-[2-(Dimethylamino)ethyl]-1H-benzo[b]pyrimido[1,6,5-lm]-4-azacarbazole-1,3(2H)-dione dihydrochloride] | 320 nM
CN(C)CCn1c(=O)c2cccc3c4ccc5occc5c4n(c1=O)c23 [Example 17, 2-[2-(Dimethylamino)ethyl]-1H-furo[3,2-a]pyrimido[5,6,1-jk]carbazole-1,3(2H)-dione hydrochloride] | 34 nM
CC(=O)Nc1ccc2c(ccc3c2c2cccc4c(=O)n(CCN(C)C)c(=O)n3c42)c1 [Example 50, 11-Acetamido-5-[2-(dimethylamino)ethyl]-4H-benzo[c]pyrimido[5,6,1-jk]carbazole-4,6(5H)-dione hydrochloride] | 7.1 nM
COc1cccc2c1ccc1c3cccc4c(=O)n(CCN(C)C)c(=O)n(c43)c21 [Example 54, 2-[2-(Dimethylamino)ethyl]-9-methoxy-1H-benzo[a]pyrimido [5,6,1-jk]carbazole-1,3(2H)-dione hydrochloride] | 80 nM
CN(C)CCn1c(=O)c2cc([N+](=O)[O-])cc3c2n(c1=O)-c1cc2ccccc2cc1O3 [Example 27, 2-[2-(Dimethylamino)ethyl]-5-nitro-1H-benzo[b]pyrimido [5,6,1-kl]phenoxazine-1,3(2H)-dione hydrochloride] | 490 nM
CN(C)CCn1c(=O)c2cccc3c4cc5ccccc5cc4n(c1=O)c23 [Example 42, 2-[2-(Dimethylamino)ethyl]-1H-benzo[b]pyrimido[5,6,1-jk]carbazole-1,3(2H)-dione hydrochloride] | 49 nM
CN(C)CCn1c(=O)c2cccc3c4c5ccc(Br)cc5ccc4n(c1=O)c23 [Example 41, 11-Bromo-5-[2-(dimethylamino)ethyl]-4H-benzo[c]pyrimido [5,6,1-jk]carbazole-4,6(5H)-dione hydrochloride] | 320 nM
CN(C)CCn1c(=O)c2cc([N+](=O)[O-])cc3c4c5ccccc5ccc4n(c1=O)c23 [Example 37, 5-[2-(Dimethylamino)ethyl]-2-nitro-4H-benzo[c]pyrimido [5,6,1-jk]carbazole-4,6(5H)-dione hydrochloride] | 380 nM
CN(C)CCn1c(=O)c2cccc3c4c5c(ccc4n(c1=O)c23)C(O)CCC5 (centres unmarked) [Example 5, 5-[2-(Dimethylamino)ethyl]-10-hydroxy-10,11,12,13-tetrahydro-4H-benzo[c]pyrimido[5,6,1-jk]carbazole-4,6(5H)-dione] | 4.8 nM
CN(C)CCn1c(=O)c2cccc3c4c5c(ccc4n(c1=O)c23)CCCC5 [Example 43, 5-[2-(Dimethylamino)ethyl]-10,11,12,13-tetrahydro-4H-benzo[b]pyrimido[5,6,1-jk]carbazole-4,6(5H)-dione hydrochloride] | 66 nM
CN(C)CCn1c(=O)c2cc(Cl)cc3c4c5ccccc5ccc4n(c1=O)c23 [Example 28, 2-Chloro-5-[2-(dimethylamino)ethyl]-4H-benzo[c]pyrimido [5,6,1-jk]carbazole-4,6(5H)-dione hydrochloride] | 70 nM
CN(C)CCn1c(=O)c2cccc3c4c5ccccc5ncc4n(c1=O)c23 [Example 30, 5-[2-(Dimethylamino)ethyl]-4H-quino[4',3'-4,5]pyrrolo [3,2,1-ij]quinazoline-4,6(5H)-dione dihydrochloride] | 32 nM
CN(C)CCn1c(=O)c2cc(N)cc3c2n(c1=O)-c1cc2ccccc2cc1O3 [Example 31, 5-Amino-2-[2-(dimethylamino)ethyl]-1H-benzo[b]pyrimido [5,6,1-kl]phenoxazine-1,3(2H)-dione dihydrochloride] | 110 nM
CN(C)CCn1c(=O)c2cccc3c4ccc5sccc5c4n(c1=O)c23 [Example 14, 2-[2-(Dimethylamino)ethyl]-1H-pyrimido[5,6,1-jk]thieno[3,2-a]carbazole-1,3(2H)-dione hydrochloride] | 74 nM
O=c1c2cccc3c4c5cccnc5ccc4n(c(=O)n1CCN1CCCC1)c23 [Example 55, 9-[2-(1-Pyrrolidinyl)ethyl]-8H-pyrido[2,3-c]pyrimido[5,6,1-jk]carbazole-8,10(9H)-dione dihydrochloride] | 11 nM

Structure (SMILES) | IC50
CN(C)CCn1c(=O)c2cccc3c4ccc5ccccc5c4n(c1=O)c23 [Example 18, 2-[2-(Dimethylamino)ethyl]-1H-benzo[a]pyrimido[5,6,1-jk]carbazole-1,3(2H)-dione hydrochloride] | 76 nM
CN(C)CCn1c(=O)c2cccc3c4c5cccnc5ccc4n(c1=O)c23 [Example 36, 9-[2-(Dimethylamino)ethyl]-8H-pyrido[2,3-c]pyrimido[5,6,1-jk]carbazole-8,10(9H)-dione dihydrochloride] | 14 nM
COc1cccc2ccc3c(c4cccc5c(=O)n(CCN(C)C)c(=O)n3c54)c12 [Example 32, 5-[2-(Dimethylamino)ethyl]-13-methoxy-4H-benzo[c]pyrimido [5,6,1-jk]carbazole-4,6(5H)-dione hydrochloride] | 410 nM
CN(C)CCCCn1c(=O)c2cccc3c4c5ccccc5ccc4n(c1=O)c23 [Example 34, 5-[4-(Dimethylamino)butyl]-4H-benzo[c]pyrimido[5,6,1-jk]carbazole-4,6(5H)-dione hydrochloride] | 450 nM
CN(C)CCn1c(=O)c2cccc3c4c5c(ccc4n(c1=O)c23)C(=O)CCO5 [Example 15, 2,3-Dihydro-9-[2-(dimethylamino)ethyl]-4H,8H-pyrano[3,2-c]pyrimido[5,6,1-jk]carbazole-4,8,10(9H)-trione hydrochloride] | 140 nM
CN(C)CCn1c(=O)c2cccc3c4c5c(ccc4n(c1=O)c23)C(O)CCC5 (single isomer, unassigned; (+)) [Example 6, (+)-5-[2-(Dimethylamino)ethyl]-10-hydroxy-10,11,12,13-tetrahydro-4H-benzo[c]pyrimido[5,6,1-jk]carbazole-4,6(5H)-dione] | 1.7 nM
CN(C)CCN(C)CCn1c(=O)c2cccc3c4c5ccccc5ccc4n(c1=O)c23 [Example 51, 5-[2-[N-[2-(Dimethylamino)ethyl]-N-methylamino]ethyl]-4H-benzo[c]pyrimido[5,6,1-jk]carbazole-4,6(5H)-dione dihydrochloride] | 290 nM
CN(C)CCn1c(=O)c2cccc3c4c5c(=O)[nH]ccc5ccc4n(c1=O)c23 [Example 29, 9-[2-(Dimethylamino)ethyl]-8H-pyrido[4,3-c]pyrimido[5,6,1-jk]carbazole-1,8,10(2H,9H)-trione hydrochloride] | 71 nM
CN(C)CCCn1c(=O)c2cccc3c4c5ccccc5ccc4n(c1=O)c23 [Example 19, 5-[3-(Dimethylamino)propyl]-4H-benzo[c]pyrimido[5,6,1-jk]carbazole-4,6(5H)-dione hydrochloride] | 220 nM
CN(C)CCn1c(=O)c2ccc(F)c3c4c5cccnc5ccc4n(c1=O)c23 [Example 56, 9-[2-(Dimethylamino)ethyl]-13-fluoro-8H-pyrido[2,3-c]pyrimido[5,6,1-jk]carbazole-8,10(9H)-dione dihydrochloride] | 15 nM
CN(C)CCn1c(=O)c2cccc3c4c5c(ccc4n(c1=O)c23)C(=O)OCC5 [Example 25, 1,2-Dihydro-9-[2-(dimethylamino)ethyl]-4H,8H-pyrano[3,4-c]pyrimido[5,6,1-jk]carbazole-4,8,10(9H)-trione hydrochloride] | 28 nM
CN(C)CCn1c(=O)c2cc(O)cc3c4c5ccccc5ccc4n(c1=O)c23 [Example 53, 5-[2-[Dimethylamino)ethyl]-2-hydroxy-4H-benzo[c]pyrimido [5,6,1-jk]carbazole-4,6(5H)-dione hydrochloride] | 300 nM
COc1cc2c(=O)n(CCN(C)C)c(=O)n3c4ccc5ccccc5c4c(c1)c23 [Example 45, 5-[2-(Dimethylamino)ethyl]-2-methoxy-4H-benzo[c]pyrimido [5,6,1-jk]carbazole-4,6(5H)-dione hydrochloride] | 160 nM
CN(C)CCn1c(=O)c2cccc3c4c5occc(=O)c5ccc4n(c1=O)c23 [Example 16, 9-[2-(Dimethylamino)ethyl]-4H,8H-pyrano[3,2-c]pyrimido [5,6,1-jk]carbazole-4,8,10(9H)-trione hydrochloride] | 110 nM
CN(C)CCn1c(=O)c2cccc3c4c5c(ccc4n(c1=O)c23)OCO5 [Example 40, 8-[2-(Dimethylamino)ethyl]-7H-1,3-dioxolo[4,5-c]pyrimido [5,6,1-jk]carbazole-7,9(8H)-dione hydrochloride] | 220 nM
CN(C)CCn1c(=O)c2cccc3c4c5ccc(N)cc5ccc4n(c1=O)c23 [Example 49, 11-Amino-5-[2-(dimethylamino)ethyl]-4H-benzo[c]pyrimido [5,6,1-jk]carbazole-4,6(5H)-dione dihydrochloride] | 30 nM
